This assay has as its system MOLM-13 cells. Briefly: MOLM-13 Cell Proliferation Assay (indicator of DHODH inhibition). It counts as cell-based. The settings on record: Homo sapiens, 72 Hours of culture, CellTiter-Glo, no uridine. The gist of the method:
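Low-passage MOLM-13 cells (10^4/well) in RPMI 1640 + 10% FBS exposed to compound (0.5% DMSO final) for 72 h at 37 °C, 5% CO2. Viability read by CellTiter-Glo luminescence; growth reflects de novo pyrimidine synthesis dependent on DHODH.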
Background: ATP-based viability assays read luminescence as a measure of living cells.

The values below come from US20250186437A1, “CARBOLINE COMPOUNDS AND USE THEREOF” (PTC Therapeutics, Inc., priority 2021, published 2025).

The structures appear in SMILES notation.

On to `Cc1ncc(C2c3[nH]c4cc(F)c(Cl)cc4c3CCN2c2ncc(Cl)cn2)cn1` (centres unmarked) [Compound 101, 6-chloro-2-(5-chloropyrimidin-2-yl)-7-fluoro-1-(2-methylpyrimidin-5-yl)-2,3,4,9-tetrahydro-1H-pyrido[3,4-b]indole], for which the IC50 (usually the concentration that inhibits the measured activity by half) is 110 nM. Take `Fc1ccc(C2c3[nH]c4cc(F)c(Cl)cc4c3CCN2c2nccc(Cl)n2)cc1` (centres unmarked) [Compound 15, 6-chloro-2-(4-chloropyrimidin-2-yl)-7-fluoro-1-(4-fluorophenyl)-2,3,4,9-tetrahydro-1H-pyrido[3,4-b]indole]: the IC50 turned out to be 32.6 nM. Compared with the last molecule, the IC50 is about 3.4-fold lower.

With `Cc1ccc([C@H]2c3[nH]c4ccc(Cl)cc4c3CCN2c2nc(C(F)(F)F)nc(C(Cl)(Cl)Cl)n2)c(F)c1F` [Compound 505, (1S)-6-chloro-1-(2,3-difluoro-4-methylphenyl)-2-[4-(trichloromethyl)-6-(trifluoromethyl)-1,3,5-triazin-2-yl]-2,3,4,9-tetrahydro-1H-pyrido[3,4-b]indole], the IC50 was determined as 1.5 nM.

`Cc1ccc([C@H]2c3[nH]c4ccc(Cl)cc4c3CCN2c2ncc(F)cn2)c(F)c1F` [Compound 238, (1S)-6-chloro-1-(2,3-difluoro-4-methylphenyl)-2-(5-fluoropyrimidin-2-yl)-2,3,4,9-tetrahydro-1H-pyrido[3,4-b]indole] yielded an IC50 of 0.9 nM. Under `Cc1ccc(C2c3[nH]c4cc(F)c(Cl)cc4c3CCN2c2nc(C(F)(F)F)cc(C(F)(F)F)n2)cc1` (centres unmarked) [Compound 154, 2-[4,6-bis(trifluoromethyl)pyrimidin-2-yl]-6-chloro-7-fluoro-1-(4-methylphenyl)-2,3,4,9-tetrahydro-1H-pyrido[3,4-b]indole] stands 0.9 nM. `Cc1ccc([C@H]2c3[nH]c4ccc(Cl)cc4c3CCN2c2nc(C)nc(C)n2)cc1` [Compound 402, (1S)-6-chloro-2-(4,6-dimethyl-1,3,5-triazin-2-yl)-1-(4-methylphenyl)-2,3,4,9-tetrahydro-1H-pyrido[3,4-b]indole] had a concentration for half-maximal inhibition (IC50) of 4.7 nM. Consider `Cc1ccc(C2c3[nH]c4ccc(Cl)c(F)c4c3CCN2c2ncc(F)c(C#N)n2)cc1` (centres unmarked) [Compound 217, 2-[6-chloro-5-fluoro-1-(4-methylphenyl)-1,3,4,9-tetrahydro-2H-pyrido[3,4-b]indol-2-yl]-5-fluoropyrimidine-4-carbonitrile], for which the IC50 came out at 2.2 nM.

With `Cc1ccc(C2c3[nH]c4ccc(Cl)cc4c3CCN2c2nccc(C#N)n2)cc1` (centres unmarked) [Compound 378, 2-[6-chloro-1-(4-methylphenyl)-1,3,4,9-tetrahydro-2H-pyrido[3,4-b]indol-2-yl]pyrimidine-4-carbonitrile], the IC50 came to 7 nM. `FC(F)(F)c1cc(C(F)(F)F)nc(N2CCc3c([nH]c4ccc(Br)cc34)[C@@H]2c2ccc(N3CCOCC3)nc2)n1` [Compound 487, (1S)-2-[4,6-bis(trifluoromethyl)pyrimidin-2-yl]-6-bromo-1-[6-(morpholin-4-yl)pyridin-3-yl]-2,3,4,9-tetrahydro-1H-pyrido[3,4-b]indole] displayed an IC50 of 0.2 nM. The result for `Cc1nc(N2CCc3c([nH]c4cc(F)c(Cl)cc34)C2c2ccc(F)cc2)ncc1F` (centres unmarked) [Compound 105, 6-chloro-7-fluoro-2-(5-fluoro-4-methylpyrimidin-2-yl)-1-(4-fluorophenyl)-2,3,4,9-tetrahydro-1H-pyrido[3,4-b]indole] reads 23.3 nM. The result for `FC(F)(F)c1ccnc(N2CCc3c([nH]c4ccc(Cl)cc34)C2c2cnc(N3CCOCC3)nc2)n1` (centres unmarked) [Compound 251, 6-chloro-1-[2-(morpholin-4-yl)pyrimidin-5-yl]-2-[4-(trifluoromethyl)pyrimidin-2-yl]-2,3,4,9-tetrahydro-1H-pyrido[3,4-b]indole] reads 2 nM; that for `Oc1ccccc1C1c2[nH]c3ccc(Cl)cc3c2CCN1c1nccc(C(F)(F)F)n1` (centres unmarked) [Compound 353, 2-{6-chloro-2-[4-(trifluoromethyl)pyrimidin-2-yl]-2,3,4,9-tetrahydro-1H-pyrido[3,4-b]indol-1-yl}phenol], 5.7 nM; that for `CN(C)c1ccc(C2c3[nH]c4ccc(Cl)c(F)c4c3CCN2c2nccc(C(F)(F)F)n2)c(F)n1` (centres unmarked) [Compound 210, 5-{6-chloro-5-fluoro-2-[4-(trifluoromethyl)pyrimidin-2-yl]-2,3,4,9-tetrahydro-1H-pyrido[3,4-b]indol-1-yl}-6-fluoro-N,N-dimethylpyridin-2-amine], 1.9 nM. Under `Cc1ccc(C2c3[nH]c4ccc(Cl)c(F)c4c3CCN2c2nc(C(F)(F)F)cc(C(F)(F)F)n2)c(F)c1F` (centres unmarked) [Compound 209, 2-[4,6-bis(trifluoromethyl)pyrimidin-2-yl]-6-chloro-1-(2,3-difluoro-4-methylphenyl)-5-fluoro-2,3,4,9-tetrahydro-1H-pyrido[3,4-b]indole] stands 0.8 nM; under `CC(C)c1ccnc(N2CCc3c([nH]c4cc(F)c(Cl)cc34)C2c2ccc(F)cc2)n1` (centres unmarked) [Compound 23, 6-chloro-7-fluoro-1-(4-fluorophenyl)-2-[4-(propan-2-yl)pyrimidin-2-yl]-2,3,4,9-tetrahydro-1H-pyrido[3,4-b]indole], 45.4 nM.

As to `O=C(O)CCCNc1ncc([C@H]2c3[nH]c4ccc(Cl)cc4c3CCN2c2nc(C(F)(F)F)nc(C(F)(F)F)n2)cn1` [Compound 538, 4-[(5-{(1S)-2-[4,6-bis(trifluoromethyl)-1,3,5-triazin-2-yl]-6-chloro-2,3,4,9-tetrahydro-1H-pyrido[3,4-b]indol-1-yl}pyrimidin-2-yl)amino]butanoic acid], the IC50 came out at 0.4 nM. The result for `Cc1ccc([C@H]2c3[nH]c4ccc(Cl)cc4c3CCN2c2nc(C)nc(C(F)(F)F)n2)cc1` [Compound 467, (1S)-6-chloro-1-(4-methylphenyl)-2-[4-methyl-6-(trifluoromethyl)-1,3,5-triazin-2-yl]-2,3,4,9-tetrahydro-1H-pyrido[3,4-b]indole] reads 0.7 nM; that for `FC(F)(F)c1cnnc(N2CCc3c([nH]c4ccc(Cl)cc34)C2c2cnc(N3CCOCC3)nc2)n1` (centres unmarked) [Compound 383, 6-chloro-1-[2-(morpholin-4-yl)pyrimidin-5-yl]-2-[5-(trifluoromethyl)-1,2,4-triazin-3-yl]-2,3,4,9-tetrahydro-1H-pyrido[3,4-b]indole], 1.6 nM; that for `Cc1ccc(C2c3[nH]c4ccc(Cl)c(F)c4c3CCN2c2ncc(C)cn2)cc1` (centres unmarked) [Compound 135, 6-chloro-5-fluoro-1-(4-methylphenyl)-2-(5-methylpyrimidin-2-yl)-2,3,4,9-tetrahydro-1H-pyrido[3,4-b]indole], 10.2 nM. The molecule `CN(C)c1nc(N2CCc3c([nH]c4ccc(Cl)cc34)[C@@H]2c2ccc(N3CCOCC3)nc2)nc(C(F)(F)F)n1` [Compound 443, 4-{(1S)-6-chloro-1-[6-(morpholin-4-yl)pyridin-3-yl]-1,3,4,9-tetrahydro-2H-pyrido[3,4-b]indol-2-yl}-N,N-dimethyl-6-(trifluoromethyl)-1,3,5-triazin-2-amine] registered an IC50 of 3.1 nM. Under `N#Cc1ccc(C2c3[nH]c4cc(F)c(Cl)cc4c3CCN2c2nccc(C#N)n2)cc1` (centres unmarked) [Compound 64, 2-[6-chloro-1-(4-cyanophenyl)-7-fluoro-1,3,4,9-tetrahydro-2H-pyrido[3,4-b]indol-2-yl]pyrimidine-4-carbonitrile] stands 67.5 nM. In turn, `Cc1ccc(C2c3[nH]c4cc(F)c(Cl)cc4c3CCN2c2nccc(C(F)(F)F)n2)c(F)c1F` (centres unmarked) [Compound 140, 6-chloro-1-(2,3-difluoro-4-methylphenyl)-7-fluoro-2-[4-(trifluoromethyl)pyrimidin-2-yl]-2,3,4,9-tetrahydro-1H-pyrido[3,4-b]indole] returned an IC50 of 1 nM. The molecule `N#Cc1ccnc(N2CCc3c([nH]c4cc(F)c(Cl)cc34)C2c2ccc(Cl)cc2)n1` (centres unmarked) [Compound 40, 2-[6-chloro-1-(4-chlorophenyl)-7-fluoro-1,3,4,9-tetrahydro-2H-pyrido[3,4-b]indol-2-yl]pyrimidine-4-carbonitrile] returned an IC50 of 22.4 nM. The molecule `Fc1cnc(N2CCc3c([nH]c4ccc(Cl)c(F)c34)C2c2ccc(C(F)(F)F)cc2)nc1` (centres unmarked) [Compound 67, 6-chloro-5-fluoro-2-(5-fluoropyrimidin-2-yl)-1-[4-(trifluoromethyl)phenyl]-2,3,4,9-tetrahydro-1H-pyrido[3,4-b]indole] came in with a half-inhibitory concentration (IC50) of 19.1 nM. The result for `CNc1ncc(C2c3[nH]c4ccc(Cl)c(F)c4c3CCN2c2nccc(C(F)(F)F)n2)cn1` (centres unmarked) [Compound 199, 5-{6-chloro-5-fluoro-2-[4-(trifluoromethyl)pyrimidin-2-yl]-2,3,4,9-tetrahydro-1H-pyrido[3,4-b]indol-1-yl}-N-methylpyrimidin-2-amine] reads 5.4 nM. In turn, `Cc1ncc(C2c3[nH]c4cc(F)c(Cl)cc4c3CCN2c2nccc(C(F)(F)F)n2)cn1` (centres unmarked) [Compound 92, 6-chloro-7-fluoro-1-(2-methylpyrimidin-5-yl)-2-[4-(trifluoromethyl)pyrimidin-2-yl]-2,3,4,9-tetrahydro-1H-pyrido[3,4-b]indole] gave a half-maximal inhibitory concentration (IC50) of 34.6 nM. This IC50 lies about 6.4-fold higher than the previous one. `N#Cc1ccnc(N2CCc3c([nH]c4ccc(Cl)c(F)c34)C2c2ccc(/C=C/CCO)cc2)n1` (centres unmarked) [Compound 236, 2-(6-chloro-5-fluoro-1-{4-[(1E)-4-hydroxybut-1-en-1-yl]phenyl}-1,3,4,9-tetrahydro-2H-pyrido[3,4-b]indol-2-yl)pyrimidine-4-carbonitrile] gave a concentration for half-maximal inhibition (IC50) of 1.8 nM.

On to `Fc1ccc(C2c3[nH]c4cc(F)c(Cl)cc4c3CCN2c2nccc(C(F)(F)F)n2)c(F)n1` (centres unmarked) [Compound 184, 6-chloro-1-(2,6-difluoropyridin-3-yl)-7-fluoro-2-[4-(trifluoromethyl)pyrimidin-2-yl]-2,3,4,9-tetrahydro-1H-pyrido[3,4-b]indole], for which the midpoint of inhibition, the IC50, lay at 8 nM. The result for `Cc1ccc(C2c3[nH]c4cc(F)c(Cl)cc4c3CCN2c2ncc(C(F)(F)F)cn2)c(F)c1F` (centres unmarked) [Compound 142, 6-chloro-1-(2,3-difluoro-4-methylphenyl)-7-fluoro-2-[5-(trifluoromethyl)pyrimidin-2-yl]-2,3,4,9-tetrahydro-1H-pyrido[3,4-b]indole] reads 4.3 nM.
